According to US20240122847A1, “ORAL POLYPEPTIDE FORMULATIONS” (Bhami's Research Laboratory, Pvt. Ltd., priority 2022, published 2024):

Assays:
[1] = system: serum calcium, serum phosphorous and alkaline phosphatase; assay: Pharmacodynamics of PTH in Yorkshire pigs; type: in vivo; parameters: sCa / sP / sALP: unit not given here; settings: for sALP / sCa / sP: Yorkshire pigs
Excerpt: (§1) The serum calcium and serum phosphorous were estimated using Siemen's […] 744 Electrolyte Analyzer and for serum ALP Siemen's Dimension Expand Plus was used.
The pharmacodynamics data in subcutaneous and buccal/Sublingual groups are shown in Tables 21 and 22 and in FIGS. 63 and 64.

[2] = system: serum calcium, serum phosphorous and alkaline phosphatase; assay: Pharmacodynamics of PTH in rats; type: in vivo, SD rats; parameters: sCa (serum calcium): unit not given here; settings: for sALP (serum alkaline phosphatase) / sCa (serum calcium) / sP (serum phosphorous): subcutaneous 40 μg
Excerpt: as §1
The pharmacodynamics data in subcutaneous and buccal/Sublingual groups of rats are shown in Tables 27 and 28 and in FIGS. 67 and 68.

[3] = Buccal/Sublingual Sugar Truffle Shell (0.49 mg), 0 h
[4] = Buccal/Sublingual Sugar Truffle Shell (0.49 mg), 0.08 h
[5] = Buccal/Sublingual Sugar Truffle Shell (0.49 mg), 0.5 h
[6] = Buccal/Sublingual Sugar Truffle Shell (0.49 mg), 1 h
[7] = Buccal/Sublingual Sugar Truffle Shell (0.49 mg), 2 h
[8] = Buccal/Sublingual Sugar Truffle Shell (0.49 mg), 4 h
[9] = Buccal/Sublingual Sugar Truffle Shell (0.49 mg), 8 h
[10] = Buccal/Sublingual Sugar Truffle Shell (0.49 mg), 24 h

CC[C@H](C)[C@H](NC(=O)[C@H](CCC(=O)O)NC(=O)[C@H](CO)NC(=O)[C@@H](NC(=O)[C@@H](N)CO)C(C)C)C(=O)N[C@@H](CCC(N)=O)C(=O)N[C@@H](CC(C)C)C(=O)N[C@@H](CCSC)C(=O)N[C@@H](Cc1cnc[nH]1)C(=O)N[C@@H](CC(N)=O)C(=O)N[C@@H](CC(C)C)C(=O)NCC(=O)N[C@@H](CCCCN)C(=O)N[C@@H](Cc1cnc[nH]1)C(=O)N[C@@H](CC(C)C)C(=O)N[C@@H](CC(N)=O)C(=O)N[C@@H](CO)C(=O)N[C@@H](CCSC)C(=O)N[C@@H](CCC(=O)O)C(=O)N[C@@H](CCCN=C(N)N)C(=O)N[C@H](C(=O)N[C@@H](CCC(=O)O)C(=O)N[C@@H](Cc1c[nH]c2ccccc12)C(=O)N[C@@H](CC(C)C)C(=O)N[C@@H](CCCN=C(N)N)C(=O)N[C@@H](CCCCN)C(=O)N[C@@H](CCCCN)C(=O)N[C@@H](CC(C)C)C(=O)N[C@@H](CCC(N)=O)C(=O)N[C@@H](CC(=O)O)C(=O)N[C@H](C(=O)N[C@@H](Cc1cnc[nH]1)C(=O)N[C@@H](CC(N)=O)C(=O)N[C@@H](Cc1ccccc1)C(=O)O)C(C)C)C(C)C [PTH (1-34)]
sALP [1, 3]: 170.55 ± 12.85
sCa [1, 3]: 9.46 ± 0.4
sP [1, 3]: 10.52 ± 0.33
sALP [1, 4]: 193.5 ± 9.32
sCa [1, 4]: 10.05 ± 0.17
sP [1, 4]: 9.87 ± 0.15
sALP [1, 5]: 170.25 ± 10.81
sCa [1, 5]: 9.77 ± 0.12
sP [1, 5]: 8.82 ± 0.17
sALP [1, 6]: 148.5 ± 11.9
sCa [1, 6]: 9.62 ± 0.04
sP [1, 6]: 8.3 ± 0.16
sALP [1, 7]: 137.75 ± 9.67
sCa [1, 7]: 9.25 ± 0.26
sP [1, 7]: 9.1 ± 0.49
sALP [1, 8]: 131 ± 11.91
sCa [1, 8]: 9.3 ± 0.34
sP [1, 8]: 9 ± 0.11
sALP [1, 9]: 128 ± 14.02
sCa [1, 9]: 9.17 ± 0.26
sP [1, 9]: 8.97 ± 0.17
sALP [1, 10]: 126.5 ± 15.28
sCa [1, 10]: 9 ± 0.18
sP [1, 10]: 9.02 ± 0.14
sALP ([1]; Subcutaneous (40 μg), 0 h): 116.5 ± 6.36
sCa ([1]; Subcutaneous (40 μg), 0 h): 9.35 ± 0.63
sP ([1]; Subcutaneous (40 μg), 0 h): 10.7 ± 0.14
sALP ([1]; Subcutaneous (40 μg), 0.08 h): 119.5 ± 2.12
sCa ([1]; Subcutaneous (40 μg), 0.08 h): 9.65 ± 0.77
sP ([1]; Subcutaneous (40 μg), 0.08 h): 10.52 ± 0.17
sALP ([1]; Subcutaneous (40 μg), 0.5 h): 134.5 ± 17.67
sCa ([1]; Subcutaneous (40 μg), 0.5 h): 9.95 ± 0.49
sP ([1]; Subcutaneous (40 μg), 0.5 h): 9.8 ± 0.28
sALP ([1]; Subcutaneous (40 μg), 1 h): 158 ± 38.18
sCa ([1]; Subcutaneous (40 μg), 1 h): 10.4 ± 0.14
sP ([1]; Subcutaneous (40 μg), 1 h): 9 ± 0.84
sALP ([1]; Subcutaneous (40 μg), 2 h): 152.5 ± 36.06
sCa ([1]; Subcutaneous (40 μg), 2 h): 10.3 ± 0.14
sP ([1]; Subcutaneous (40 μg), 2 h): 10.25 ± 1.06
sALP ([1]; Subcutaneous (40 μg), 4 h): 141.5 ± 33.23
sCa ([1]; Subcutaneous (40 μg), 4 h): 9.9 ± 0.42
sP ([1]; Subcutaneous (40 μg), 4 h): 11 ± 0
sALP ([1]; Subcutaneous (40 μg), 8 h): 133.5 ± 23.33
sCa ([1]; Subcutaneous (40 μg), 8 h): 9.5 ± 0.28
sP ([1]; Subcutaneous (40 μg), 8 h): 11.4 ± 0.28
sALP ([1]; Subcutaneous (40 μg), 24 h): 114.5 ± 3.53
sCa ([1]; Subcutaneous (40 μg), 24 h): 9.4 ± 0.28
sP ([1]; Subcutaneous (40 μg), 24 h): 11.6 ± 0.28
PD effect on serum calcium, serum phosphorous and serum alkaline phosphatase ([1]; pigs, PTH given by buccal/sublingual route): clearly indicates the effect on serum calcium, serum phosphorous and serum alkaline phosphatase
PD effect on serum calcium, serum phosphorous and serum alkaline phosphatase ([2]; PTH given by buccal/sublingual route): clearly indicates the effect on serum calcium, serum phosphorous and serum alkaline phosphatase
sALP (serum alkaline phosphatase) ([2]; time 0 hours): 98.5 ± 33.23
sCa (serum calcium) ([2]; time 0 hours): 9.05 ± 0.07
sP (serum phosphorous) ([2]; time 0 hours): 9.3 ± 0.28
sALP (serum alkaline phosphatase) ([2]; time 0.08 hours): 131 ± 1.41
sCa (serum calcium) ([2]; time 0.08 hours): 9.65 ± 0.77
sP (serum phosphorous) ([2]; time 0.08 hours): 8.85 ± 0.07
sALP (serum alkaline phosphatase) ([2]; time 0.5 hours): 136 ± 7.07
sCa (serum calcium) ([2]; time 0.5 hours): 10.2 ± 0.28
sP (serum phosphorous) ([2]; time 0.5 hours): 8.45 ± 0.21
sALP (serum alkaline phosphatase) ([2]; time 1 hours): 142 ± 5.65
sCa (serum calcium) ([2]; time 1 hours): 10.35 ± 0.35
sP (serum phosphorous) ([2]; time 1 hours): 4.85 ± 0.91
sALP (serum alkaline phosphatase) ([2]; time 2 hours): 184.5 ± 16.26
sCa (serum calcium) ([2]; time 2 hours): 10.45 ± 0.35
sP (serum phosphorous) ([2]; time 2 hours): 5.75 ± 1.06
sALP (serum alkaline phosphatase) ([2]; time 4 hours): 151 ± 21.21
sCa (serum calcium) ([2]; time 4 hours): 9.45 ± 0.21
sP (serum phosphorous) ([2]; time 4 hours): 8.65 ± 0.21
sALP (serum alkaline phosphatase) ([2]; time 8 hours): 131.5 ± 14.84
sCa (serum calcium) ([2]; time 8 hours): 9.25 ± 0.35
sP (serum phosphorous) ([2]; time 8 hours): 8.95 ± 0.07
sALP (serum alkaline phosphatase) ([2]; time 24 hours): 111 ± 21.21
sCa (serum calcium) ([2]; time 24 hours): 9.05 ± 0.21
sP (serum phosphorous) ([2]; time 24 hours): 9.35 ± 0.07
